The source of these data is patent US20190060261A1, “ACTIVE COMBINATIONS OF PERILLIC ACID AND ACTIVITY ENHANCING SUBSTANCES” (B.R.A.I.N BIOTECHNOLOGY RESEARCH AND INFORMATION NETWORK AG, priority 2016, published 2019).

Converted amounts (≈) assume the structure as drawn.

Assay [1] concerns Bacillus subtilis subsp. spizizenii ATCC®6633. In words: Minimal inhibition concentration (MIC), microdilution method. In kind it is cell-based. The following applies: Bacillus subtilis, ATCC6633; yeast peptone dextrose, 25 mM MES-buffer, 28° C., no growth after 24 h and 72 h; read-out: MIC [A to D] Bacillus subtilis. An excerpt:
(§1) The antimicrobial activity of different substances was examined and compared to perillic acid in vitro using the microdilution method adapted from DIN EN ISO 20776-1:2006. Besides perillic acid and its sodium salt, other organic acids like levulinic acid, p-anisic acid, benzoic acid and sorbic acid as well as alkane-1,2-diols such as hexane-1,2-diol, octane-1,2-diol and decane-1,2-diol were studied. Additionally, the commonly used preservatives 2-phenoxyethanol, 2-phenylethanol and benzyl alcohol were investigated.
(§2) All experiments were done in 96-well plates in a final volume of 200 μL. Test solutions of the investigated compounds were prepared in 25 mM buffered water. The procedure was conducted as following: 4 μL of the particular stock solution were mixed with 196 μL culture medium containing a defined inoculum of the respective target strain. Sterile controls (not inoculated) and growth controls (buffer instead of compound added) were performed. All compound concentrations were tested in triplicate for several times. The following contamination germs were examined: Escherichia coli ATCC 8739, Pseudomonas aeruginosa ATCC 9027, Stapyhlococcus aureus ATCC®6538, Bacillus subtilis subsp. spizizenii ATCC®6633, Candida albicans ATCC®10231 and Aspergillus brasiliensis ATCC®16404. The strains were cultivated either in Mueller-Hinton II Bouillon (Escherichia coli, Pseudomonas aeruginosa, Staphylococcus aureus), in yeast peptone dextrose (Bacillus subtilis, Candida albicans) or in potato dextrose medium (Aspergillus brasiliensis). All culture media were buffered with 25 mM MES-buffer. For compound testing, the plates were incubated at 37° C. for Escherichia coli, Pseudomonas aeruginosa and Staphylococcus aureus, at 28° C. for Bacillus subtilis and Candida albicans, and at 25° C. for Aspergillus brasiliensis. Plates were evaluated after 24 h and 72 h, respectively. The minimal inhibitory concentration (MIC) is defined as the concentration where no microbial growth was observed after 24 h and 72 h incubation at the specified temperature.
(§3) MIC-values are given according to the following letter code.
A general note: Broth dilution looks for growth in wells or tubes with falling amounts of substance.

Assay [2] concerns Candida albicans ATCC®10231. The assay is described as above. The format is cell-based. Particulars: yeast peptone dextrose, 25 mM MES-buffer, 28° C., no growth after 24 h and 72 h.
Excerpt: as §1, §2, §3

Assay [3] relates to Aspergillus brasiliensis ATCC®16404. Described as above. The format is cell-based. Particulars: Aspergillus brasiliensis, ATCC16404; potato dextrose medium, 25 mM MES-buffer, 25° C., no growth after 24 h and 72 h; read-out: MIC [A to D] Aspergillus brasiliensis.
Excerpt: as §1, §2, §3

The subject of assay [4] is Pseudomonas aeruginosa ATCC 9027. Described as above. The format is cell-based. The following applies: Pseudomonas aeruginosa, ATCC9027; Mueller-Hinton II Bouillon, 25 mM MES-buffer, 37° C., no growth after 24 h and 72 h; read-out: MIC [A to D] Pseudomonas aeruginosa.
Excerpt: as §1, §2, §3

The test system of assay [5] is Pseudomonas aeruginosa ATCC®9027. The assay can be described thus: Conservation efficacy test according to DIN EN ISO 11930 in cosmetic formulation. In kind it is cell-based. Particulars: cosmetic formulation (oil-water-emulsion), day 0 to day 28. As to the method: (§4) The composition of the formulations was in general as follows (ingredient amounts according to the FDA-code):
(§5) In order to confirm the activity against Gram-positive and Gram-negative bacteria, yeasts and moulds, conservation efficacy tests were performed according to DIN EN ISO 11930. The following classical contamination germs were examined: Escherichia coli (Ec in FIGS. 1 and 2) ATCC®8739, Pseudomonas aeruginosa (Pa in FIGS. 1 and 2) ATCC®9027, Stapyhlococcus aureus (Sa in FIGS. 1 and 2) ATCC®6538, Candida albicans (Ca in FIGS. 1 and 2) ATCC®10231 and Aspergillus brasiliensis (Ab in FIGS. 1 and 2) ATCC®16404. Media composition, incubation conditions and dilution procedures were all conducted according to the guidelines.
(§6) Data are presented as line graphs. […] The tested contamination germs are identified by different symbols as indicated in the diagrams with the following abbreviations: […]

The test system of assay [6] is Candida albicans ATCC®10231. The description is as above. The format is cell-based. Particulars: cosmetic formulation (oil-water-emulsion), day 0 to day 28. On the procedure: as §4, §5, §6
A further assay relates to Escherichia coli. The assay can be described thus: Combination of substances with perillic acid: reduction of the MIC of perillic acid. In kind it is cell-based. Particulars: test compound combined with perillic acid; experiments as in Example 1. As to the method:
as §2
(§7) Activity of perillic acid was comparably low against Gram-negative bacteria. It was thus tested whether the respective MIC could be reduced by combination of perillic acid with selected substances.
(§8) Experiments were performed as described for Example 1 above. A reduction factor was determined, expressing the reduction of the MIC of perillic acid that was achievable by combination with the combination partner. For example, a reduction factor of 2 means that the MIC of perillic acid was reduced by a factor of 2 by combination of perillic acid with the respective activity enhancing substance.

Another assay deals with Pseudomonas aeruginosa. The description is as above. In kind it is cell-based. The following applies: test compound combined with perillic acid; experiments as in Example 1. As to the method: as §2, §7, §8
In assay [7] the test system is Stapyhlococcus aureus ATCC®6538. The assay can be described thus: Minimal inhibition concentration (MIC), microdilution method. In kind it is cell-based, Staphylococcus aureus. The following applies: Mueller-Hinton II Bouillon, 25 mM MES-buffer, 37° C., no growth after 24 h and 72 h.
Excerpt: as §1, §2, §3

Assay [8] relates to Escherichia coli ATCC 8739. The assay can be described thus: Minimal inhibition concentration (MIC), microdilution method adapted from DIN EN ISO 20776-1:2006. In kind it is cell-based. The following applies: Escherichia coli, ATCC8739; Mueller-Hinton II Bouillon, 25 mM MES-buffer, 37° C., no growth after 24 h and 72 h; read-out: MIC [A to D] Escherichia coli.
Excerpt: as §1, §2, §3

Assay [9] deals with Escherichia coli, Pseudomonas aeruginosa, Stapyhlococcus aureus, Candida albicans and Aspergillus brasiliensis. The assay can be described thus: Conservation efficacy test according to DIN EN ISO 11930 in cosmetic formulation, all five test strains. The format is cell-based. The following applies: cosmetic formulation (oil-water-emulsion), day 0 to day 28. As to the method: as §4, §5, §6

Assay [10] deals with Escherichia coli ATCC®8739. In words: Conservation efficacy test according to DIN EN ISO 11930 in cosmetic formulation. The format is cell-based. The following applies: cosmetic formulation (oil-water-emulsion), day 0 to day 28. As to the method:
as §4, §5, §6

Assay [11] has as its system Aspergillus brasiliensis ATCC®16404. The description is as above. In kind it is cell-based. The following applies: cosmetic formulation (oil-water-emulsion), day 0 to day 28. On the procedure:
as §4, §5, §6

In assay [12] the test system is Stapyhlococcus aureus ATCC®6538. Described as above. Particulars: cosmetic formulation (oil-water-emulsion), day 0 to day 28. In kind it is cell-based, Staphylococcus aureus. On the procedure: as §4, §5, §6

`CCCCCCC(O)CO` (centres unmarked) [Octane-1,2-diol]: the MIC in assay [1] fell in the range of 1000 to 5000 µg/mL (≈ 6.84 to 34.2 mM); in assay [3] it was 1000 to 5000 µg/mL (≈ 6.84 to 34.2 mM); in assay [4] it was 1000 to 5000 µg/mL (≈ 6.84 to 34.2 mM); in assay [8], 5000 to 10000 µg/mL (≈ 34.2 to 68.4 mM). Moreover, the “MIC [A to D] Candida albicans” value in assay [2] was “A (MIC>1% (w/v))”. Also, the “criteria for an adequate conservation against P. aeruginosa” value in assay [5] is “does not fulfill the criteria”. The “criteria for an adequate conservation against C. albicans” value in assay [6] is listed as “does not fulfill the criteria”. Further, in the assay on Escherichia coli, the “Reduction factor (reduction of the MIC of perillic acid by combination with the test compound) Escherichia coli” value turned out to be 2000. Besides, the “Reduction factor (reduction of the MIC of perillic acid by combination with the test compound) Pseudomonas aeruginosa” value in the assay with Pseudomonas aeruginosa was 2000. Moreover, the “MIC [A to D] Staphylococcus aureus” value in assay [7] is listed as “A (MIC>1% (w/v))”.

In the case of `CC(=O)CCC(=O)O` [Levulinic acid], the MIC in assay [1] lay in the range of 5000 to 10000 µg/mL (≈ 43.1 to 86.1 mM); in assay [3], 1000 to 5000 µg/mL (≈ 8.61 to 43.1 mM); in [4], 1000 to 5000 µg/mL (≈ 8.61 to 43.1 mM); in assay [7] (Staphylococcus aureus, ATCC6538, read-out: MIC [A to D] Staphylococcus aureus) it was 1000 to 5000 µg/mL (≈ 8.61 to 43.1 mM); in [8] it was 1000 to 5000 µg/mL (≈ 8.61 to 43.1 mM). In assay [2], the “MIC [A to D] Candida albicans” value is given as “A (MIC>1% (w/v))”. Also, the “Reduction factor (reduction of the MIC of perillic acid by combination with the test compound) Escherichia coli” value in the assay on Escherichia coli was determined as 200. For the same compound, in the assay on Pseudomonas aeruginosa, the “Reduction factor (reduction of the MIC of perillic acid by combination with the test compound) Pseudomonas aeruginosa” value is on record as 40. Further, the “criteria according to the guidelines for an adequate conservation (all five test strains)” value in [9] is “does not fulfill the criteria”.

Turning to `C=C(C)[C@@H]1CC=C(C(=O)O)CC1` [Perillic acid], the “criteria for an adequate conservation against E. coli” value in [10] is “fulfills the criteria”. In addition, the “criteria for an adequate conservation against C. albicans” value in [6] is “fulfills the criteria”. In [11], the “criteria for an adequate conservation against A. brasiliensis” value is “fulfills the criteria”. Also, the “criteria for an adequate conservation against S. aureus” value in [12] is recorded as “fulfills the criteria”.

In general, MIC refers to the lowest concentration found to suppress growth.
